PubChem BioAssay AID1963977 (Molecular Pharmacology Branch, DTP, NCI, 2024)
pIC50: −log10 of the molar value. Values joined by “and” are separate entries in the source; they are usually repeats but may differ in a detail not shown here. Identical values can stand only once.

Tested on: 624824-186-R-J3-PDC multicell spheroids, viability
Assay: Anticancer human tumor 624824-186-R-J3-PDC patient-derived colon adenocarcinoma cell line growth inhibition [PI3K]
Conditions: for viability, T/C: stronger effect = lower value
Method in brief: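 Stroma-containing spheroids: tumor line, pooled-donor HUVEC, hMSC. Treatments: targeted agents with PI3K inhibitors. Dosing: clinically relevant, half-log spacing, 10 microM ceiling without known Cmax. Read-out: cell viability.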

[1] = curve of first compound, second compound 0.00316 µM
[2] = curve of first compound, second compound 0.01 µM
[3] = curve of first compound, second compound 0.0316 µM
[4] = curve of first compound, second compound 0.1 µM
[5] = curve of first compound, second compound 0.316 µM
[6] = curve of first compound, second compound 1 µM
[7] = second compound 0.00316 µM, first compound 0.0316 µM
[8] = second compound 0.00316 µM, first compound 0.1 µM
[9] = second compound 0.01 µM, first compound 0.0316 µM
[10] = second compound 0.01 µM, first compound 0.1 µM
[11] = second compound 0.0316 µM, first compound 0.0316 µM
[12] = second compound 0.0316 µM, first compound 0.1 µM
[13] = second compound 0.1 µM, first compound 0.0316 µM
[14] = second compound 0.1 µM, first compound 0.1 µM
[15] = second compound 0.316 µM, first compound 0.0316 µM
[16] = second compound 0.316 µM, first compound 0.1 µM
[17] = second compound 1 µM, first compound 0.0316 µM
[18] = second compound 1 µM, first compound 0.1 µM
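Note: spheroids exposed to agents for seven days before luminescence read.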
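Throughout, for viability, T/C: luminescent signal used as a stand-in for spheroid viability; percent viability relative to DMSO vehicle control wells taken as 100%.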

Cn1ncnc1[C@H]1c2n[nH]c(=O)c3cc(F)cc(c23)N[C@@H]1c1ccc(F)cc1 + COc1c(OCCCN2CCOCC2)ccc2c3n(c(=NC(=O)c4cnc(N)nc4)nc12)CCN3
pIC50 [1]: < 7.00
pIC50 [2]: < 7.00
pIC50 [3]: < 7.00
pIC50 [4]: < 7.00
pIC50 [5]: > 9.50
pIC50 [6]: > 9.50
viability, T/C (second compound 0.00316 µM, first compound 0.000316 µM): 103%
viability, T/C (second compound 0.00316 µM, first compound 0.001 µM): 97.5%
viability, T/C (second compound 0.00316 µM, first compound 0.00316 µM): 102%
viability, T/C (second compound 0.00316 µM, first compound 0.01 µM): 96.3%
viability, T/C [7]: 90.1%
viability, T/C [8]: 102%
viability, T/C (second compound 0.01 µM, first compound 0.000316 µM): 115%
viability, T/C (second compound 0.01 µM, first compound 0.001 µM): 110%
viability, T/C (second compound 0.01 µM, first compound 0.00316 µM): 102%
viability, T/C (second compound 0.01 µM, first compound 0.01 µM): 93.1%
viability, T/C [9]: 97.1%
viability, T/C [10]: 107%
viability, T/C (second compound 0.0316 µM, first compound 0.000316 µM): 91.1%
viability, T/C (second compound 0.0316 µM, first compound 0.001 µM): 103%
viability, T/C (second compound 0.0316 µM, first compound 0.00316 µM): 88.5%
viability, T/C (second compound 0.0316 µM, first compound 0.01 µM): 90.8%
viability, T/C [11]: 87.2%
viability, T/C [12]: 97.3%
viability, T/C (second compound 0.1 µM, first compound 0.000316 µM): 77.1%
viability, T/C (second compound 0.1 µM, first compound 0.001 µM): 76%
viability, T/C (second compound 0.1 µM, first compound 0.00316 µM): 83.1%
viability, T/C (second compound 0.1 µM, first compound 0.01 µM): 73.3%
viability, T/C [13]: 75.3%
viability, T/C [14]: 71%
viability, T/C (second compound 0.316 µM, first compound 0.000316 µM): 48.3%
viability, T/C (second compound 0.316 µM, first compound 0.001 µM): 48.3%
viability, T/C (second compound 0.316 µM, first compound 0.00316 µM): 54%
viability, T/C (second compound 0.316 µM, first compound 0.01 µM): 44.9%
viability, T/C [15]: 48.7%
viability, T/C [16]: 46%
viability, T/C (second compound 1 µM, first compound 0.000316 µM): 27.3%
viability, T/C (second compound 1 µM, first compound 0.001 µM): 28%
viability, T/C (second compound 1 µM, first compound 0.00316 µM): 30.1%
viability, T/C (second compound 1 µM, first compound 0.01 µM): 25.9%
viability, T/C [17]: 23.9%
viability, T/C [18]: 27%

C=CC(=O)N1CCN(c2nc(=O)n(-c3c(C)ccnc3C(C)C)c3nc(-c4c(O)cccc4F)c(F)cc23)C(C)C1 (stereo unspecified) + CC(Nc1ccc2c(c1)OCCn1cc(N3C(=O)OCC3C(F)F)nc1-2)C(N)=O
pIC50 [1]: < 5.00
pIC50 [2]: < 5.00
pIC50 [3]: < 5.00
pIC50 [4]: < 5.00
pIC50 [5]: < 5.00
pIC50 [6]: < 5.00
viability, T/C [7]: 103%
viability, T/C [8]: 94.4%
viability, T/C (second compound 0.00316 µM, first compound 0.316 µM): 98.8%
viability, T/C (second compound 0.00316 µM, first compound 1 µM): 88.2%
viability, T/C (second compound 0.00316 µM, first compound 3.16 µM): 99.7%
viability, T/C (second compound 0.00316 µM, first compound 10 µM): 105%
viability, T/C [9]: 105%
viability, T/C [10]: 99.2%
viability, T/C (second compound 0.01 µM, first compound 0.316 µM): 96.9%
viability, T/C (second compound 0.01 µM, first compound 1 µM): 94%
viability, T/C (second compound 0.01 µM, first compound 3.16 µM): 99.6%
viability, T/C (second compound 0.01 µM, first compound 10 µM): 106%
viability, T/C [11]: 97%
viability, T/C [12]: 98.5%
viability, T/C (second compound 0.0316 µM, first compound 0.316 µM): 102%
viability, T/C (second compound 0.0316 µM, first compound 1 µM): 96%
viability, T/C (second compound 0.0316 µM, first compound 3.16 µM): 113%
viability, T/C (second compound 0.0316 µM, first compound 10 µM): 99.6%
viability, T/C [13]: 91.7%
viability, T/C [14]: 97.2%
viability, T/C (second compound 0.1 µM, first compound 0.316 µM): 107%
viability, T/C (second compound 0.1 µM, first compound 1 µM): 102%
viability, T/C (second compound 0.1 µM, first compound 3.16 µM): 107%
viability, T/C (second compound 0.1 µM, first compound 10 µM): 104%
viability, T/C [15]: 90.1%
viability, T/C [16]: 96.8%
viability, T/C (second compound 0.316 µM, first compound 0.316 µM): 94.5%
viability, T/C (second compound 0.316 µM, first compound 1 µM): 94%
viability, T/C (second compound 0.316 µM, first compound 3.16 µM): 108%
viability, T/C (second compound 0.316 µM, first compound 10 µM): 98.4%
viability, T/C [17]: 95.1%
viability, T/C [18]: 83.7%
viability, T/C (second compound 1 µM, first compound 0.316 µM): 87.4%
viability, T/C (second compound 1 µM, first compound 1 µM): 87%
viability, T/C (second compound 1 µM, first compound 3.16 µM): 87.4%
viability, T/C (second compound 1 µM, first compound 10 µM): 91.3%

C=CC(=O)N1CCN(c2nc(=O)n(-c3c(C)ccnc3C(C)C)c3nc(-c4c(O)cccc4F)c(F)cc23)C(C)C1 (stereo unspecified)
viability, T/C (compound 0.0316 µM): 103% [middle of 4 runs]
viability, T/C (compound 0.1 µM): 94.8% [middle of 4 runs]
viability, T/C (compound 0.316 µM): 103% [middle of 4 runs]
viability, T/C (compound 1 µM): 94.3% [middle of 4 runs]
viability, T/C (compound 3.16 µM): 104% [middle of 4 runs]
viability, T/C (compound 10 µM): 106% and 108% (3×)
pIC50 (curve of compound): < 5.00
